System: Alternaria solani
Experiment: Detached tomato leaf antifungal assay
Assay type: in vivo
Conditions: for size of the fungus induced damage compared to untreated control: 80 mg/L spray

Row | SMILES | fungal lesion size compared to untreated control (8 mg/L spray) | size of the fungus induced damage compared to untreated control
1 | O=C[C@H](O)[C@@H](O)[C@@H](OS(=O)(=O)O)[C@H](O)CO [Gal-S, D-galactose-4-O-sulphate] | does not show significant reduction in the fungal lesion size | significant reduction in the size of the fungus induced damage
2 | O=Cc1ccc(CO)o1 [HMF, Hydroxymethylfurfural] | – | significant reduction in the size of the fungus induced damage

Source: US12016334B2, “Composition comprising sulphated galactose, and implementations thereof” (priority 2018, dated 2024)
